In patent US20250228794A1, “HOMOVANILLYL ALCOHOL (HVA), HVA ISOMER, METHODS OF MAKING COMPOSITIONS COMPRISING SUCH COMPOUNDS, AND METHODS USING SUCH COMPOUNDS” (SOCIETE DES PRODUITS NESTLE S.A., priority 2017, published 2025):

Key:
[1] = Urinary excretion of oleuropein metabolites after intake of olive leaf extract (pilot study, LC-MS)
Procedure: Specifically, urine samples were enzymatically treated to hydrolyze the glucuronide and sulfate moieties and release the free forms which were quantified. After sample purification by liquid-liquid extraction, the chromatographic separation was operated on an Acquity™ UPLC® BEH C18 column (1.7 μm, 2.1×150 mm). The mobile phase consisted of 1 mmol/L ammonium acetate buffer and methanol under gradient conditions at a flow-rate of 0.25 mL/min. Hydroxytyrosol, homovanillyl alcohol, and the homovanillyl alcohol isomer 3-hydroxy-4-methoxyphenethanol (alternatively named 3-hydroxy-4-methoxyphenethyl alcohol) were identified and quantified by high performance liquid chromatography-electrospray ionization tandem mass spectrometry (HPLC-ESI-MS/MS) and by comparison with their corresponding chemically synthesized standards.
The circulating concentration and kinetics of absorption of phenolic compounds and their metabolites in biological fluids (plasma or urine) depends on the matrix in which the compounds are ingested, the dose ingested, the time point of sample collection, the microflora of each individual, and the metabolism of each individual. To develop the most appropriate analytical approach for the measurement of OE absorption, a pilot study was conducted. Specifically, five subjects collected urine at baseline (before intake of the olive leaf extract) and between the intakes of two capsules of the olive leaf extract.
The analytical method (sample preparation, deconjugation conditions, chromatographic detection and separation) was first developed by spiking chemical standards which were commercially available in commercial urine. The deconjugation conditions were determined by using the conjugates available, hydroxytyrosol sulfate and homovanillyl alcohol glucuronide. The commercially available chemical standards were 3,4-Dihydroxybenzoic acid; 3,4-Dihydroxyphenylacetic acid; Homovanillic acid; Homovanillyl alcohol; Homovanillyl alcohol glucuronide (vanillyl methanol glucuronide); Hydroxytyrosol; Hydroxytyrosol sulfate (hydroxytyrosol sulfate triethylammonium salt); and Vanillic acid.
Briefly, the sample preparation consisted of a liquid-liquid extraction with ethyl acetate after a protein precipitation using acidified methanol.
Regarding chromatographic analysis, Oleuropein metabolites were separated by reversed-phase ultra-performance liquid chromatography using a C18-column Acquity UPLC BEH C18 1.7 μm, 2.1 mm×150 mm, (Waters AG, Switzerland). The system consisted of a LC system Acquity™ UPLC® (Waters AG, Switzerland) coupled with a Qtrap 5500 Mass spectrometer detector equipped with an electrospray ionization source (ABSciex, Switzerland). Detection was performed in the negative operating mode at unit resolution.
Specifically, a preliminary analysis of the urine samples collected after intake of the olive leaf extract was performed by electrospray ionization (ESI) in the negative ion mode, scanning for the different [M−H]^− ions at the theoretical m/z of the expected oleuropein metabolites and conjugates (Table 1).
Relative amount of the metabolites identified was first evaluated to clarify if their excretion in urine was increasing after intake of the olive leaf extract. This evaluation was based on the measurement of the area under the corresponding chromatographic peak, which reflects the amount.

Collagen-II = Collagen-II gene expression in chondrocytes in alginate beads, IL1-α stimulation; type: cell-based; settings: two-hour pre-treatment, twenty-four hour IL1-α stimulation; polyphenols at 10 μM; FIG. 16A
Excerpt: (§1) Chondrocytes in alginate beads were subjected to a two-hour polyphenols pre-treatment followed by a twenty-four hour IL1-α stimulation.
Regarding FIG. 16A, Collagen-II is an anabolism-related gene for major structural components of the extracellular matrix of joints.

[2] = tested on: inducible isoform of nitric oxide synthase (iNOS); experiment: iNOS gene expression in chondrocytes (anti-inflammatory effect); type: cell-based; settings: FIG. 17A
Excerpt: as §1
(§2) Then the anti-inflammatory effect of oleuropein metabolites in chondrocytes was studied.
Regarding FIG. 17A, the inducible isoform of nitric oxide synthase (iNOS) is an inflammation-related gene linked to NO production.

inflamed chondrocytes [3] = experiment: Collagen in culture media of inflamed chondrocytes (catabolism); type: cell-based; settings: FIG. 18B
Excerpt: as §1
(§3) Next it was shown that oleuropein metabolites prevent collagen breakdown in inflamed chondrocytes (FIGS. 18A and 18B). In this regard, collagen in extra-cellular matrix corresponds to the collagen synthesized by the cells, i.e., anabolism. […] Collagen in culture media corresponds to the collagen degraded by cells and released in the media, i.e., […].

chondrocytes = experiment: Effects of oleuropein metabolites on chondrocytes (overall); type: cell-based; settings: synthetic form; comparison with hydroxytyrosol
Procedure: As also set forth in detail later herein, several metabolites of oleuropein were tested for their effects on chondrocytes.
as §1

cyclooxygenase-2 (COX-2) = experiment: COX-2 gene expression in chondrocytes (anti-inflammatory effect); type: cell-based; settings: FIG. 17B
Procedure: as §1, §2
Regarding FIG. 17B, cyclooxygenase-2 (COX-2) is another inflammation-related gene. It is linked to the Prostaglandin E2 (PGE2) pathway. OLP, EA and HVOH were efficient at 2 μM. OLP, OEA and HVOH were efficient at 10 μM.

inflamed chondrocytes [4] = experiment: Collagen in extra-cellular matrix of inflamed chondrocytes (anabolism); type: cell-based; settings: FIG. 18A
Excerpt: as §1, §3

[5] = urine after intake of olive leaf extract, LC-MS, MS2/MS3

Which “change of amount in urine (area under the peak) after intake of olive leaf extract versus basal” value (“change of amount in urine” for short) ([1]; in vivo) does the source give for `O=C(O)c1ccc(O)c(O)c1` [3,4-dihydroxybenzoic acid] here?
The value was “do not increase”.

What about the “detection and identification in urine” value ([1]; in vivo) of the same molecule?
Its value is “detected in samples after intake of the olive leaf extract and in basal samples”.

With `O=C(O)Cc1ccc(O)c(O)c1` [3,4-dihydroxyphenylacetic acid, 3,4-Dihydroxyphenylacetic acid] as the molecule, how does the “change of amount in urine” value ([1]; in vivo) read?
Its value is “do not increase”.

What about the “detection and identification in urine” value ([1]; in vivo) of the same molecule?
The value was “detected in samples after intake of the olive leaf extract and in basal samples”.

With `COc1cc(CCO)ccc1O[C@@H]1O[C@H](C(=O)O)[C@@H](O)[C@H](O)[C@H]1O` [Homovanillyl alcohol glucuronide] as the molecule, how does the “Number of forms confirmed in urine” value ([1]; in vivo) read?
The value was 1.

And the “detection and identification in urine” value ([1]; in vivo)?
Its value is “Presence & identity confirmed”.

Which “change of amount in urine” value ([1]; FIG. 15, subjects 1 to 5) does the source give for `COc1cc(CC(=O)O)ccc1O` [homovanillic acid, Homovanillic acid] here?
The value was “do not increase”.

What does the source list for `COc1ccc(CCO)cc1O` [homovanillyl alcohol isomer, 3-hydroxy-4-methoxyphenethanol]?
Collagen-II gene expression (protective effect) (Collagen-II): significant effect; iNOS gene expression (protective effect) ([2]; 2 μM): significant effect; iNOS gene expression (protective effect) ([2]; 10 μM): significant effect; collagen in culture media (collagen degraded and released, catabolism) (inflamed chondrocytes [3]): potent anti-breakdown effect (improved over control); effects on chondrocytes (chondrocytes): more effective than hydroxytyrosol

Which “Number of forms confirmed in urine” value ([1]; human, in vivo) does the source give for `COc1cc(CCO)ccc1O` [homovanillyl alcohol] here?
Its value is 2.

What about the “change of amount in urine” value ([1]; in vivo) of the same molecule?
The value was “specifically increase after intake of olive leaf extract”.

What about the “detection and identification in urine” value ([1]; in vivo) of the same molecule?
Its value is “Presence & identity confirmed”.

What about the “form excreted in urine” value ([1]; in vivo) of the same molecule?
Its value is “mainly as conjugated form”.

And the COX-2 gene expression (cyclooxygenase-2 (COX-2); 2 μM)?
Its COX-2 gene expression is “efficient”.

What about the COX-2 gene expression (cyclooxygenase-2 (COX-2); 10 μM) of the same molecule?
Its COX-2 gene expression is “efficient”.

And the “collagen in culture media (collagen degraded and released, catabolism)” value (inflamed chondrocytes [3])?
The value was “potent anti-breakdown effect (improved over control)”.

And the effects on chondrocytes (chondrocytes)?
The effects on chondrocytes was “more effective than hydroxytyrosol”.

With `OCCc1ccc(O)c(O)c1` [hydroxytyrosol, 3,4-dihydroxyphenylethanol, reference compound] as the molecule, how does the “Number of forms confirmed in urine” value ([1]; human, in vivo) read?
The value was 1.

What about the “average of the area under the chromatographic peak in urine” value ([1]; human, in vivo) of the same molecule?
Its value is 7.7×10^6.

And the “change of amount in urine” value ([1]; in vivo)?
Its value is “specifically increase after intake of olive leaf extract”.

What about the “detection and identification in urine” value ([1]; in vivo) of the same molecule?
Its value is “Presence & identity confirmed”.

What about the “form excreted in urine” value ([1]; in vivo) of the same molecule?
The value was “mainly as conjugated form”.

What about the “relative abundance excreted in urine” value ([1]; in vivo) of the same molecule?
The value was “more abundant than HVOH”.

For `CC=C1C(O)OC=C(C(=O)OC)C1CC(=O)OCCc1ccc(O)c(O)c1` (stereo not drawn) [oleuropein aglycone, 3,4-dihydroxyphenylethanol-elenolic acid], which “Number of forms confirmed in urine” value ([1]; in vivo) is on record?
The value was 1.

And the “average of the area under the chromatographic peak in urine” value ([1]; in vivo)?
Its value is 2×10^6.

What about the COX-2 gene expression (cyclooxygenase-2 (COX-2); 10 μM) of the same molecule?
Its COX-2 gene expression is “efficient”.

And the “collagen in extra-cellular matrix (collagen synthesized by the cells, anabolism)” value (inflamed chondrocytes [4])?
Its value is “protective effect”.

For `COc1cc(C(=O)O)ccc1O` [vanillic acid, Vanillic acid], which “change of amount in urine” value ([1]; human, in vivo) is on record?
The value was “strongly increases in urine of subjects 2 and 4, but not as much in subjects 1, 3 and 5”.

What about the “detection and identification in urine” value [1, 5] of the same molecule?
The value was “detected in samples after intake of the olive leaf extract and in basal samples”.

For Elenolic acid [EA], which “detection and identification in urine” value ([1]; in vivo) is on record?
Its value is “none of them could be confirmed as being EA”.

And the COX-2 gene expression (cyclooxygenase-2 (COX-2); 2 μM)?
The COX-2 gene expression was “efficient”.

And the “collagen in culture media (collagen degraded and released, catabolism)” value (inflamed chondrocytes [3])?
Its value is “potent anti-breakdown effect (improved over control)”.

Which “detection and identification in urine” value ([1]; in vivo) does the source give for Elenolic acid sulfate [EA-S] here?
The value was “Neither ion of elenolic acid sulfate nor of elenolic acid glucuronide (EA-S or EA-G) could be detected”.

Which “Number of forms confirmed in urine” value ([1]; urine after intake of olive leaf extract) does the source give for Hydroxytyrosol sulfate here?
Its value is 1.

What about the “detection and identification in urine” value [1, 5] of the same molecule?
Its value is “Presence & identity confirmed”.

For Methylated oleuropein aglycone, which “detection and identification in urine” value ([1]; in vivo) is on record?
Its value is “Not detected”.

What does the source list for Oleuropein aglycone glucuronide?
Number of forms confirmed in urine ([1]; in vivo): 2; detection and identification in urine ([1]; in vivo): Presence & identity confirmed

Which “Number of forms confirmed in urine” value ([1]; in vivo) does the source give for Oleuropein aglycone sulfate here?
Its value is 1.
